Source: publication PMC3688948, “Distinctive G Protein-Dependent Signaling by Protease-Activated Receptor 2 (PAR2) in Smooth Muscle: Feedback Inhibition of RhoA by cAMP-Independent PKA” (PLoS ONE, 2013)
Like-named read-outs stand apart in the source and are kept apart here. Peptide text beside a SMILES is read from it. * marks the point of attachment. Myristoyl = CCCCCCCCCCCCCC(=O)*; Cbz = O=C(OCc1ccccc1)*

Experiments:
[1] = tested on: dispersed gastric smooth muscle cells; settings: for contraction (decrease in cell length), comparator agonists: other contractile agonists, concentration not given; for effect of inhibitor on sustained (10 min) contraction by PAR2-AP: inhibitor 10 min (U73122 10 µM, ML-9 10 µM, bisindolylmaleimide 1 µM, Y27632 1 µM), then PAR2-AP 1 µM 10 min
Rho kinase = Rho kinase activity (immunokinase assay), PAR2-AP-stimulated or basal; assay type: cell-based, rabbit; settings: for basal Rho kinase activity with inhibitor alone / effect of inhibitor on PAR2-AP-induced Rho kinase activity: IKK IV 10 µM; for basal Rho kinase activity with inhibitor alone: MG-132 10 µM or myristoylated PKI 1 µM alone, basal 3125±502 cpm/mg protein, n = four; for effect of inhibitor on PAR2-AP-induced Rho kinase activity: MG-132 10 µM or myristoylated PKI 1 µM, PAR2-AP 1 µM 10 min, freshly dispersed cells, P<0.01
PAR2 [2] = target: T1, PAR2 (Oryctolagus cuniculus, UniProt G1SHU9); assay type: cell-based, rabbit
T1 construct: Freshly dispersed muscle cells labelled with myo-2-[^3H]inositol were incubated with different concentrations of PAR2-AP for 60 s; endogenous in cells; host or cells: freshly dispersed and primary cultured rabbit gastric smooth muscle cells
T1 sequence (G1SHU9 25-397): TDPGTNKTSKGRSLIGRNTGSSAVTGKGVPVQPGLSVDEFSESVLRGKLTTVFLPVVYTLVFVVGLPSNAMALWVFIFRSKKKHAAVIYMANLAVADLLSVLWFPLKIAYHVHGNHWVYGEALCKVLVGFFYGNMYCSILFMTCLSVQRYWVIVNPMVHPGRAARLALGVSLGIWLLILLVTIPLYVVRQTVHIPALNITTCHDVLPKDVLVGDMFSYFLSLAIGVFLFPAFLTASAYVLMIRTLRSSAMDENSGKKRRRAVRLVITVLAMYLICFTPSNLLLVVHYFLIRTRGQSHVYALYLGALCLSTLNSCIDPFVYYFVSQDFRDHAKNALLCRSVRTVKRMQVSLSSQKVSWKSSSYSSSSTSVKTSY

adenylyl cyclase = test: Forskolin-stimulated cAMP formation (adenylyl cyclase activity); assay type: cell-based, rabbit; settings: forskolin 10 µM, 10 min, 100 µM isobutyl methyl xanthine; basal 2.8±0.5 pmol/mg protein; n = 4
Experimental: Adenylyl cyclase activity was measured by the formation of cAMP in response to agonists by radioimmunoassay using [^125I]cAMP [18], [21]. One ml (3×10^6 cells/ml) of cell suspension was treated for 60 s with forskolin (10 µM) in the presence of 100 µM isobutylmethyl xanthine, either alone or in combination with PAR2-AP (1 µM). The reaction was terminated with cold 6% trichloroacetic acid (v/v) and vortexed vigorously. After centrifugation, the supernatants were extracted three times with water-saturated diethyl ether to remove the tricholoroacetic acid and the samples were then lyophilized and frozen at –20°C. The samples were reconstituted for radioimmunoassay in 50 µl of 50 mM sodium acetate (pH 6.2) and acetylated with triethylamine/acetic anhydride (2∶1 v/v) for 30 min. […] The results are expressed as pmol of cAMP/mg protein.
Cyclic AMP formation was measured in freshly dispersed muscle cells in the presence of 100 µM isobutylmethylxanthine. Muscle cells were treated with PAR2-AP (1 µM) alone, forskolin (FSK, 10 µM) alone or forskolin plus PAR2-AP (1 µM) for 60 s and cAMP was measured by radioimmunoassay. In some experiments cells were treated with pertussis toxin (PTx, 200 ng/ml) for 60 min, and then treated with forskolin (10 µM) and PAR2-AP (1 µM) for 60 s. Results are expressed as pmol/mg protein.

PAR2 [3] = target: T1, PAR2; test: PAR2 expression (western blot); assay type: cell-based, rabbit; settings: transfection with PAR2-specific siRNA for 48 h, cultured cells
[4] = tested on: NF-kB/PKA catalytic subunit complex; test: Association of PKA catalytic subunit with NF-kB (co-immunoprecipitation); assay type: cell-based, rabbit; settings: cells transfected with PAR2-specific siRNA, PAR2-AP 10 min
[5] = target: Protease-activated receptor 2 (PAR2) (rabbit (endogenous in gastric smooth muscle cells))
[6] = inhibitor 10 min (U73122 10 µM, ML-9 10 µM, bisindolylmaleimide 1 µM, Y27632 1 µM) or PTx 200 ng/ml 60 min, then PAR2-AP 1 µM 30 s

Molecule: NCCc1c[nH]c2ccc(O)cc12 [5-hydroxytryptamine]
- contraction (decrease in cell length), comparator agonists [1]: 30±4%

Molecule: NC(=O)Nc1sc(-c2ccc(F)cc2)cc1C(N)=O [IKK IV]
- basal Rho kinase activity with inhibitor alone (Rho kinase; no effect): 3021±486 cpm/mg protein
- effect of inhibitor on PAR2-AP-induced Rho kinase activity (Rho kinase): significantly augmented

Molecule: CC(C)C[C@@H](C=O)NC(=O)[C@H](CC(C)C)NC(=O)[C@H](CC(C)C)NC(=O)OCc1ccccc1 [MG-132] (Cbz-Leu-Leu-Leu-aldehyde)
- basal Rho kinase activity with inhibitor alone (Rho kinase; no effect): 2859±602 cpm/mg protein
- effect of inhibitor on PAR2-AP-induced Rho kinase activity (Rho kinase): significantly augmented

Molecule: O=S(=O)(c1cccc2c(Cl)cccc12)N1CCCNCC1 [ML-9]
- effect of inhibitor on initial (30 s) contraction by PAR2-AP [1, 6]: abolished
- effect of inhibitor on sustained (10 min) contraction by PAR2-AP [1]: not

Molecule: COc1ccc2c(c1)CC[C@@H]1[C@@H]2CC[C@]2(C)[C@@H](NCCCCCCN3C(=O)C=CC3=O)CC[C@@H]12 [U73122]
- effect of inhibitor on initial (30 s) contraction by PAR2-AP [1, 6]: abolished
- effect of inhibitor on sustained (10 min) contraction by PAR2-AP [1]: not
- inhibition of PAR2-AP-stimulated PI hydrolysis by U73122 (PAR2 [2]; U73122 10 µM 10 min, then PAR2-AP 1 µM 60 s, freshly dispersed cells): abolished
- PI hydrolysis with inhibitor alone (PAR2 [2]; no PAR2-AP, U73122 10 µM 10 min or PTx 200 ng/ml 60 min, basal 520±66 cpm/mg protein, no effect on basal): 485±86 cpm/mg protein

Molecule: C[C@@H](N)[C@H]1CC[C@H](C(=O)Nc2ccncc2)CC1 [Y27632]
- effect of inhibitor on initial (30 s) contraction by PAR2-AP [1, 6]: not affected
- effect of inhibitor on sustained (10 min) contraction by PAR2-AP [1]: preferentially blocked
- basal Rho kinase activity with Y27632 alone (Rho kinase; Y27632 1 µM alone, basal 3363±587 cpm/mg protein, no effect): 3025±425 cpm/mg protein

Molecule: CC(=O)OCC[N+](C)(C)C [acetylcholine]
- contraction (decrease in cell length), comparator agonists [1]: 31±3%

Molecule: C=C[C@@]1(C)CC(=O)[C@]2(O)[C@@]3(C)[C@@H](O)CCC(C)(C)[C@@H]3[C@H](O)[C@H](OC(C)=O)[C@@]2(C)O1 [forskolin]
- cAMP formation above basal level (adenylyl cyclase): 22.1±1.86 pmol/mg protein

Molecule: PAR2 siRNA: PAR-2 (ID#s453494): sense: 5′ CCUCCUCUCUGUCAUCUGGTT 3′, antisense: 5′ CCAGAUGACAGAGAGGAGGTC3′ (chemistry not given here)
- expression of PAR2 (PAR2 [3]): greatly suppressed the expression of PAR2
- effect of PAR2 siRNA on PAR2-AP-induced NF-kB and PKA catalytic subunit dissociation [4]: blocked
- inhibition of PAR2-AP-stimulated PI hydrolysis by PAR2 siRNA (PAR2 [2]; cultured cells transfected with PAR2 siRNA, PAR2-AP 1 µM 60 s, p<0.001, n = four): 83±6%

Molecule: bisindolylmaleimide
- effect of inhibitor on initial (30 s) contraction by PAR2-AP [1]: not affected
- effect of inhibitor on sustained (10 min) contraction by PAR2-AP [1]: not

Molecule: cholecystokinin
- contraction (decrease in cell length), comparator agonists [1]: 29±2%

Molecule: myristoylated PKI: membrane-permeable specific PKA inhibitory peptide, myristoylated PKI 14-22 amide (Myristoyl-SGRTGRRNA-NH2; SMILES CCCCCCCCCCCCCC(=O)N[C@@H](CO)C(=O)NCC(=O)N[C@@H](CCCNC(=N)N)C(=O)N[C@H](C(=O)NCC(=O)N[C@@H](CCCNC(=N)N)C(=O)N[C@@H](CCCNC(=N)N)C(=O)N[C@@H](CC(N)=O)C(=O)N[C@@H](C)C(N)=O)[C@@H](C)O; UniProt P61925 14-22, looked up, fragment)
- basal Rho kinase activity with inhibitor alone (Rho kinase; no effect): 3254±574 cpm/mg protein
- effect of inhibitor on PAR2-AP-induced Rho kinase activity (Rho kinase): significantly augmented

Molecule: trypsin
- PI hydrolysis above basal levels, trypsin (PAR2 [2]; trypsin 1 µM, basal 439±68 cpm/mg protein): 2653±302 cpm/mg protein

Molecule: SLIGRL [PAR2-activating peptide (PAR2-AP, SLIGRL)]
- stimulation of PI hydrolysis in freshly dispersed rabbit gastric smooth muscle cells, concentration-dependent (EC50) [5]: 2 nM
